Experimental data reported in ChEMBL document CHEMBL4732159, “Discovery of 6-Oxo-4-phenyl-hexanoic acid derivatives as RORγt inverse agonists showing favorable ADME profile” (Bioorg Med Chem Lett, 2021).

Key:
[1] = Protein binding in mouse plasma
[2] = Apparent permeability across basal to apical membrane in human Caco-2 cells
[3] = Apparent permeability across apical to basal membrane in human Caco-2 cells
[4] = Intrinsic clearance in human liver microsomes
[5] = Half life in mouse at 1 umol/kg, iv; conditions: in vivo
[6] = Protein binding in human plasma
[7] = Clearance in mouse at 2 umol/kg, po or 1 umol/kg, iv; conditions: in vivo
[8] = Intrinsic clearance in mouse liver microsome; conditions: microsomes
in vivo [9] = conditions: mouse, po, 2 umol/kg
in vivo [10] = conditions: mouse, po, 2 umol/kg; remark: listed apart in the source
[11] = Half life in mouse at 2 umol/kg, po; conditions: in vivo

Row | Compound | fraction unbound [1] | Papp B→A [2] | Papp A→B [3] | CLH [4] | half-life [5] | fraction unbound [6] | clearance [7] | CLH [8] | AUC (in vivo [9]) | bioavailability (in vivo [10]) | half-life [11]
1 | Cc1c(CN2CCN(C(=O)C3CCCC3)[C@@H](C)C2)cc(F)cc1NC(=O)CC(CCC(=O)O)c1ccccc1 (stereo in doubt; 6a) | 0.028 | 39 ×10⁻⁶ cm/s | 1.3 ×10⁻⁶ cm/s | < 10 µL/min/mg | 1.2 h | 0.006 | 76.7 mL/min/kg | 17 µL/min/mg | 0.2 µM·h | 46% | 1.5 h
2 | Cc1c(CN2CCN(C(=O)C3CCCC3)[C@@H](C)C2)cc(F)cc1NC(=O)CCc1ccccc1 |  |  |  | 1900 µL/min/mg |  |  |  |  |  |  | 

More lines, now with the values ahead:

Row | fraction unbound [1] | Papp B→A [2] | Papp A→B [3] | CLH [4] | half-life [5] | fraction unbound [6] | clearance [7] | CLH [8] | AUC (in vivo [9]) | bioavailability (in vivo [10]) | half-life [11] | Compound
3 | 0.006 | 45 ×10⁻⁶ cm/s | 13 ×10⁻⁶ cm/s | 31 µL/min/mg | 1.5 h | 0.003 | 8.67 mL/min/kg | < 10 µL/min/mg | 4 µM·h | 100% | 1.5 h | C[C@H]1CN(Cc2cc(Cl)cc(NC(=O)CC(CCC(=O)O)c3ccccc3)c2Cl)CCN1C(=O)C1CCCC1 (stereo in doubt; 12a)
4 |  |  |  | 21 µL/min/mg |  |  |  |  |  |  |  | Cc1c(CN2CCN(C(=O)C3CCCC3)[C@@H](C)C2)cc(F)cc1NC(=O)CC(CCC(=O)O)c1ccccc1 (stereo in doubt; 6b)
5 |  |  |  | < 10 µL/min/mg |  |  |  |  |  |  |  | C[C@H]1CN(Cc2cc(Cl)cc(NC(=O)CC(CCC(=O)O)c3ccccc3)c2Cl)CCN1C(=O)C1CCCC1 (stereo in doubt; 12b)
